Data taken from ChEMBL document CHEMBL1127848, “Three-dimensional quantitative structure-activity relationship of human immunodeficiency virus (I) protease inhibitors. 2. Predictive power using limited exploration of alternate binding modes” (J Med Chem, 1994).

Target: Human immunodeficiency virus type 1 protease (Human immunodeficiency virus 1, UniProt Q72874)
Assay: Inhibitory activity against HIV-1 Protease

Question: How did the IC50 turn out when `CNC(=O)N(CC(C)C)CC(O)[C@H](Cc1ccccc1)NC(=O)[C@H](CC(N)=O)NC(=O)OCc1ccccc1` (stereo not given in full) was run?
Answer: Its IC50 is 1500 nM.

Question: How did the IC50 turn out when `CC(C)CCN(CC(O)[C@H](Cc1ccccc1)NC(=O)[C@H](CC(N)=O)NC(=O)c1ccc2ccccc2n1)C(=O)NC(C)(C)C` (stereo not given in full) was run?
Answer: Its IC50 is 3 nM.

Question: With `CC(C)[C@@H](C(=O)N[C@H]1Cc2ccccc2[C@H]1O)[C@@H](O)[C@H](O)[C@H](CC1CCCCC1)NC(=O)c1ccccc1OCSc1ccccc1` as the molecule, how does the IC50 read?
Answer: The IC50 was 450 nM.

Question: `CC[C@H](C)[C@H](NC(=O)[C@H](C(C)C)[C@@H](O)[C@H](O)[C@H](CC1CCCCC1)NC(=O)c1cccc(C)c1OCOc1ccccc1)C(=O)NCc1nc2ccccc2[nH]1` was tested. Which IC50 did it give?
Answer: Its IC50 is 108 nM.

Question: How did the IC50 turn out when `CC(C)(C)NC(=O)N(Cc1ccccc1)CC(O)[C@H](Cc1ccccc1)NC(=O)[C@H](CC(N)=O)NC(=O)OCc1ccccc1` (stereo not given in full) was run?
Answer: The IC50 was 19 nM.

Question: `CC[C@H](C)[C@H](NC(=O)[C@H](C(C)C)[C@@H](O)[C@H](O)[C@H](CC1CCCCC1)NC(=O)C1CCCCC1)C(=O)NCc1ccccn1` was tested. Which IC50 did it give?
Answer: Its IC50 is 49.5 nM.

Question: For `CC(C)CN(CC(O)[C@H](Cc1ccccc1)NC(=O)[C@H](CC(N)=O)NC(=O)OCc1ccccc1)C(=O)NC(C)(C)C` (stereo not given in full), which IC50 is on record?
Answer: Its IC50 is 35 nM.

Question: For `CCCCNC(=O)N(CC(C)C)CC(O)[C@H](Cc1ccccc1)NC(=O)[C@H](CC(N)=O)NC(=O)c1ccc2ccccc2n1` (stereo not given in full), which IC50 is on record?
Answer: The IC50 was 126 nM.

Question: `CC(C)[C@@H](C(=O)N[C@H]1Cc2ccccc2[C@H]1O)[C@@H](O)[C@H](O)[C@H](CC1CCCCC1)NC(=O)c1ncccc1OCOc1ccccc1` was tested. Which IC50 did it give?
Answer: Its IC50 is 540 nM.

Question: `CC(C)(C)NC(=O)N(CC(O)[C@H](Cc1ccccc1)NC(=O)[C@H](CC(N)=O)NC(=O)OCc1ccccc1)C1CCCCC1` (stereo not given in full) was tested. Which IC50 did it give?
Answer: Its IC50 is 29 nM.

Question: With `CC[C@H](C)[C@H](NC(=O)[C@H](C(C)C)C(O)[C@H](O)[C@H](CC1CCCCC1)NC(=O)c1ncccc1OCOc1ccccc1)C(=O)NCc1nc2ccccc2[nH]1` (stereo not given in full) as the molecule, how does the IC50 read?
Answer: Its IC50 is 540 nM.

Question: `CC[C@H](C)[C@H](NC(=O)[C@H](C(C)C)C(O)[C@H](O)[C@H](CC1CCCCC1)NC(=O)c1ccccc1OCOc1ccccc1)C(=O)NCc1nc2ccccc2[nH]1` (stereo not given in full) was tested. Which IC50 did it give?
Answer: The IC50 was 18 nM.

Question: Which IC50 does the source give for `CC(C)(C)NC(=O)N(Cc1ccccc1)CC(O)[C@H](Cc1ccccc1)NC(=O)[C@H](CC(N)=O)NC(=O)c1ccc2ccccc2n1` (stereo not given in full) here?
Answer: Its IC50 is 3 nM.

Question: `CC(C)[C@@H](C(=O)N[C@H]1Cc2ccccc2[C@H]1O)[C@@H](O)[C@H](O)[C@H](CC1CCCCC1)NC(=O)c1ccccc1` was tested. Which IC50 did it give?
Answer: The IC50 was 36 nM.

Question: For `C[C@H](c1ccccc1)N(CC(O)[C@H](Cc1ccccc1)NC(=O)[C@H](CC(N)=O)NC(=O)OCc1ccccc1)C(=O)NC(C)(C)C` (stereo not given in full), which IC50 is on record?
Answer: Its IC50 is 6500 nM.

Question: How did the IC50 turn out when `CC(C)(C)NC(=O)N(CC(O)[C@H](Cc1ccccc1)NC(=O)[C@H](CC(N)=O)NC(=O)c1ccc2ccccc2n1)C1CCCCC1` (stereo not given in full) was run?
Answer: Its IC50 is 5 nM.

Question: For `CC(C)[C@@H](C(=O)N[C@H]1Cc2ccccc2[C@H]1O)[C@@H](O)[C@H](O)[C@H](CC1CCCCC1)NC(=O)c1ncccc1OCSc1ccccc1`, which IC50 is on record?
Answer: The IC50 was 2400 nM.

Question: With `CC(C)CN(CC(O)[C@H](Cc1ccccc1)NC(=O)[C@H](CC(N)=O)NC(=O)c1ccc2ccccc2n1)C(=O)NC(C)(C)C` (stereo not given in full) as the molecule, how does the IC50 read?
Answer: Its IC50 is 6.01 nM.

Question: Which IC50 does the source give for `CC[C@H](C)[C@H](NC(=O)[C@H](C(C)C)[C@@H](O)[C@H](O)[C@H](CC1CCCCC1)NC(=O)c1ncccc1OCSc1ccccc1)C(=O)NCc1nc2ccccc2[nH]1` here?
Answer: The IC50 was 315 nM.

Question: With `CC(C)CN(CC(O)[C@H](Cc1ccccc1)NC(=O)[C@H](CC(N)=O)NC(=O)OCc1ccccc1)C(=O)NC(C)C` (stereo not given in full) as the molecule, how does the IC50 read?
Answer: Its IC50 is 260 nM.

Question: How did the IC50 turn out when `CC[C@H](C)[C@H](NC(=O)[C@H](C(C)C)[C@@H](O)[C@H](O)[C@H](CC1CCCCC1)NC(=O)c1ccccc1OCSc1ccccc1)C(=O)NCc1nc2ccccc2[nH]1` was run?
Answer: The IC50 was 11.2 nM.

Question: How did the IC50 turn out when `CCNC(=O)N(CC(C)C)CC(O)[C@H](Cc1ccccc1)NC(=O)[C@H](CC(N)=O)NC(=O)OCc1ccccc1` (stereo not given in full) was run?
Answer: Its IC50 is 330 nM.

Question: With `CC(C)(C)NC(=O)N(Cc1ccncc1)CC(O)[C@H](Cc1ccccc1)NC(=O)[C@H](CC(N)=O)NC(=O)c1ccc2ccccc2n1` (stereo not given in full) as the molecule, how does the IC50 read?
Answer: Its IC50 is 19 nM.

Question: Which IC50 does the source give for `CC(C)CCN(CC(O)[C@H](Cc1ccccc1)NC(=O)[C@H](CC(N)=O)NC(=O)OCc1ccccc1)C(=O)NC(C)(C)C` (stereo not given in full) here?
Answer: The IC50 was 13 nM.

Question: Which IC50 does the source give for `CC(C)[C@@H](C(=O)N[C@H]1Cc2ccccc2[C@H]1O)[C@@H](O)[C@H](O)[C@H](CC1CCCCC1)NC(=O)c1ccccc1OCOc1ccccc1` here?
Answer: Its IC50 is 540 nM.

Question: How did the IC50 turn out when `CC[C@H](C)[C@H](NC(=O)[C@H](C(C)C)[C@@H](O)[C@H](O)[C@H](CC1CCCCC1)NC(=O)c1ccccc1)C(=O)NCc1nc2ccccc2[nH]1` was run?
Answer: Its IC50 is 80.9 nM.

Question: For `CC(c1ccccc1)N(CC(O)[C@H](Cc1ccccc1)NC(=O)[C@H](CC(N)=O)NC(=O)OCc1ccccc1)C(=O)NC(C)(C)C` (stereo not given in full), which IC50 is on record?
Answer: Its IC50 is 5090 nM.

Question: `CCCNC(=O)N(CC(C)C)CC(O)[C@H](Cc1ccccc1)NC(=O)[C@H](CC(N)=O)NC(=O)OCc1ccccc1` (stereo not given in full) was tested. Which IC50 did it give?
Answer: The IC50 was 543 nM.

Question: For `CCCCNC(=O)N(CC(C)C)CC(O)[C@H](Cc1ccccc1)NC(=O)[C@H](CC(N)=O)NC(=O)OCc1ccccc1` (stereo not given in full), which IC50 is on record?
Answer: The IC50 was 942 nM.

Question: With `CC(C)(C)NC(=O)N(Cc1ccncc1)CC(O)[C@H](Cc1ccccc1)NC(=O)[C@H](CC(N)=O)NC(=O)OCc1ccccc1` (stereo not given in full) as the molecule, how does the IC50 read?
Answer: Its IC50 is 105 nM.
